Measured values reported in patent US20120258938A1, “Enzymatic Production or Chemical Synthesis and Uses for 5,7-Dienes and UVB Conversion Products Thereof” (priority 2008, published 2012).

What was measured:
[1] = test system: SKMEL-188 human melanoma cells; test: Proliferation (DNA synthesis) of SKMEL-188; type: cell-based; conditions: SKMEL-188, 72 h
Procedure: To measure DNA synthesis, keratinocytes, melanoma or prostate cancer cells were plated in 96-well plates. After overnight incubation tested compounds were added to the medium to achieve final concentrations 10^−7-10^−10 [M]. 100 μl of medium per well containing vitamin D3 compound was added to the cells. After 36 hours of incubation [3H]-thymidine (specific activity 88.0 Ci/mmol; Amersham Biosciences, Picataway, N.Y., USA) was added at 1 μCi/mL medium. After 12 hours, media were discarded, cells detached with trypsin and harvested on a glass fiber filter (Packard, Meriden, Calif., USA). 3H-radioactivity was measured with a beta counter (Direct Beta-Counter Matrix 9600; Packard).
HaCaT keratinocytes were an incubated for 48 h (FIG. 48A) or 72 h (FIG. 48B) in the presence of graded concentrations of 20(OH)D2 and/or 1,25(OH)2D3. […] Data are shown as mean±SD (n 3); *, p<0.05; **, p<0.01.

MD-MBA-231 = test: Flow cytometry cell cycle and subG1, MD-MBA-231; type: cell-based, human; conditions: MD-MBA-231, 24 h
Procedure: (§1) MD-MBA-231, MG-63, PC-3, and WM164 cells were seeded into Petri dishes and then incubated for 24 h with 20-hydroxycholecalciferol in DMEM medium containing 5% FBS. Then cells were fixed, DNA stained and samples read with flow cytometer as described (7). Data was analyzed with Cell Quest (BD Biosciences). Cell cycle phases were assessed in viable cell populations and subG1 contents were calculated within whole cell population.

type I collagen = test: Type I collagen ELISA, TGF-b1 stimulated skin fibroblasts; type: cell-based; conditions: human skin fibroblasts
Procedure: Additional studies using human skin fibroblasts were performed employing a type I collagen specific ELISA Chondrex, and real time RT PCR to quantitate type I collagen protein and Col1A1 mRNA expression in culture of human fibroblast stimulated by TGF-b1 in the presence and absence of 17,20S(OH)2pD3 and/or 20(OH)D3. These studies confirmed that Type I collagen protein production that was induced by TGF-b1 and that Col1A1 mRNA that was induced by TGF-b1 were suppressed by these analogues (FIGS. 44A-44B).

CYP24 = test: Real-time RT PCR CYP24 mRNA, normal epidermal keratinocytes; type: cell-based, human
Procedure: RNA was extracted as above. Reverse transcription was performed with Transcriptor First Strand cDNA Synthesis Kit (Roche, Nutley, N.J.). The primers (right: 5′-GCA GCT CGA CTG GAG TGA C-3′ (SEQ ID NO: 1) and left: 5′-CATCATGGCCATCAAAACAAT-3′(SEQ ID NO: 2)) and probe (cat. no. 04689135001) were designed with Universal Probe Library (Roche, Nutley, N.J.). Real-time PCR was performed using TaqMan PCR Master Mix at 50° C. for 2 min, 95° C. for 10 min and then 50 cycles (95° C. for 15 sec, 60° C. for 1 min). The data was collected on a Roche Light Cycler 480. The amounts of CYP24 were normalized using cyclophilin D as a housekeeping gene with comparative CT method.

PC-3 = test: Flow cytometry cell cycle and subG1, PC-3; type: cell-based, human; conditions: PC-3, 24 h
Procedure: as §1

[2] = test system: U937 promonocytic leukemia cells; test: Monocytic differentiation (NBT), U937; type: cell-based, human; conditions: U937, 0.1 μM
Procedure: HL-60 human promyelocytic and U937 promonocytic leukemia cells were treated with the drugs at 0.1 μM or vehicle (negative control or 12-O-tetradecanoylphorbol-13-acetate (TPA) (positive control). Media were changed every 72 h and test substances added fresh every day. Differentiation toward monocytes-like morphology and NBT-reduction has been assessed after 5 and 7 days. Cells (2×106) were washed with PBS four times and resuspended in 200 μL of NBT solution (4 mg/mL) in water. After the addition of 200 ul of TPA solution (2 ug/ml) in PBS cells were incubated at 37° C. for 60 min in 24-well plates. Cell differentiation was assessed by intracellular blue formazan deposits. The NBT positive and negative cells were scored under light microscopy examination (40×) with a minimum of 200 cells scored.
For spectrophotometric analysis the cells were washed twice with buffer containing cold bovine serum albumin solution (17 mg/mL BSA, 137 mmol/L, NaCl, 5 mmol/L, KCl, 0.8 mmol/L, MgSO4, […], HEPES, pH7.4) to remove unreacted NBT, and the insoluble formazan deposits in the resulting pellet were solubilized in 1 mL of a mixture containing 90% DMSO, 0.1% SDS and 0.01 mmol/L NaOH by vigorous vortexing. The samples were centrifuged 5 min at 1500 g to remove the cellular debris, and then the absorbance of supernatants was measured at 715 nm. Data are expressed as change in A715/106 cells.

C=C1/C(=C\C=C2/CCC[C@]3(C)[C@@H]([C@H](C)CCCC(C)(C)O)CC[C@@H]23)C[C@@H](O)C[C@@H]1O [1α,25-dihydroxycholecalciferol, (5Z,7E)-9,10-secocholesta-5,7,10(19)-triene-1α,3β,25-triol, reference compound]
proliferation [1]: Dose dependent inhibition of the proliferation

C=C1CC[C@H](O)C/C1=C/C=C1\CCC[C@@]2(C)[C@H]1CC[C@@H]2[C@@](C)(O)CCCC(C)C [20(OH)D3, (5Z,7E)-9,10-secocholesta-5,7,10(19)-triene-3β,20-diol]
G0/G1 of viable cells (MD-MBA-231): 47% | G2/M of viable cells (MD-MBA-231): 10 | S of viable cells (MD-MBA-231): 43% | Viable Cells (MD-MBA-231): 8 | subG1 (MD-MBA-231; whole cell population): 92 | TGF-b1 induced Type I collagen protein production (ELISA) (type I collagen): suppressed | increase of CYP24 mRNA levels (CYP24; 10 nM, 24 h): 1.3 fold | stimulation of CYP24 mRNA (CYP24; 10^−6, 24 h): ~247 fold | G0/G1 of viable cells (PC-3): 24% | G2/M of viable cells (PC-3): 0 | S of viable cells (PC-3): 76% | Viable Cells (PC-3): 4 | subG1 (PC-3; whole cell population): 96

C=C1CC[C@H](O)C/C1=C/C=C1\CCC[C@]2(C)[C@@H](C(C)=O)CC[C@@H]12 [pD3, (5Z,7E)-3β-hydroxy-9,10-secopregna-5,7,10(19)-trien-20-one]
monocytic differentiation (NBT staining) [2]: induce monocytic differention
